The experiment concerns Human gastric cancer cells MGC-803. Briefly: In vivo efficacy test of 17bNF Crystal Form 0 and Form II, MGC-803 xenograft in nude mice. The note with it: oral, once a day, six times every week until the 15th day; start at average tumor volume 1450 mm^3; FIG. 42A-C. The procedure:
Human gastric cancer cells MGC-803 were subcutaneously planted into the armpit of nude mice. The test drugs 17bNF-0 and 17bNF-II were separately administrated orally when the average tumor volume reached 1450 mm^3. Drugs were given once a day, six times every week until the 15th day. CMC (drug-carrier; 0.5%) was used as the blank control. Tumor volumes were measured once about every three days (FIG. 42A), and the nude mice were photographed on the 22th day (FIG. 42B), and the nude mice were sacrificed on the 22th day. The tumors were dissected out from the nude mice and photographed (FIG. 42C).

Consider `COC1C(O)[C@H](O[C@H]2CC[C@@]3(C)[C@H](CC[C@@H]4[C@@H]3CC[C@]3(C)[C@@H](C5=CC(=O)OC5)CC[C@]43O)C2)OC(C)[C@@H]1O` (stereo partly drawn) [17bNF-0, (3β, 5β)-3-[(6-deoxy-3-O-methyl-α-L-glucopyranosyl)oxy]-14-hydroxycard-20(22)-enolide], for which the “anticancer activities in nude mice (tumor volume)” value is recorded as “very high anticancer activities”.

(Values after patent publication US11091510B2, “Crystal characteristics, preparation processes and anticancer applications of 17beta-neriifolin crystal forms” (EnKang Pharmaceuticals (Guangzhou), Ltd., priority 2017, dated 2021).)
